Measurements: US20240415819A1, “MACROCYCLIC COMPOUNDS AS PROTEASOME SUBUNIT BETA TYPE-5 INHIBITORS” (Lead Discovery Center GmbH, priority 2021, published 2024)

Columns and labels:
[1] = target: T1, β5 subunit of the human immunoproteasome (IPS) (Homo sapiens, UniProt P28062); experiment: β5 inhibition assay, human immunoproteasome (Suc-LLVY-AMC); assay type: biochemical; settings: IC50 class, Suc-LLVY-AMC substrate
T1 construct: purchased Boston Biochem E-370
In short: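 Human immunoproteasome (1 nM final) was preincubated 10 min at RT with compound in 100 mM HEPES pH 7.5, 50 mM NaCl, 0.02% SDS, 1 mM DTT. Suc-LLVY-AMC (22.6 μM final) was then added for 4 h at RT in the dark. After stopping with 1 μM bortezomib, AMC fluorescence was read (ex 355/em 460 nm).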

[2] = test system: hPMBC; experiment: Chymotrypsin-like ProteasomeGlo assay in hPBMC; assay type: cell-based; settings: Homo sapiens; read-out: Pglo hPBMC
Source text: Chymotrypsin-like ProteasomeGlo assay in the B-cells isolated from PBMC's following compound addition (IC50). • 1. PBMC's will be isolated from human blood followed by B-cell isolation from the PBMC's using the Miltenyi Isolation Kit. • 2. This experiment will use the Chymotrypsin-like ProteasomeGlo read-out to generate IC50's following compound treatment. • 3. Dilute all compounds 1:100 for the assay. • 4. […] Repeat the DMSO transfer with lane 12. • 5. Lane 12 should not be seeded with any cells. Only medium! • 6. For all steps, make sure the samples and reagents remain cool! • 7. While dealing with the buffy coats, be careful to not let any exposed skin to be in direct contact with the blood.
For the initial steps and to make processing the buffy coats easier, separately process the buffy coats. • a. Cut the tube attached to the buffy coats carefully using a clean, sterile and fresh scalpel. • b. Transfer the blood into 2 individual 50 ml falcons. • c. Add an equal volume of DPBS to the blood in the falcons. • d. Add ˜20 ml of lymphocyte separating medium to two 50 ml falcons. • e. Carefully pour 15-20 ml of the blood+DPBS mix from step c. onto the lymphocyte separating medium from step d. • f. Centrifuge the falcons with the lymphocyte separating medium+blood mix at 800×g for 15 minutes using a swing-out rotor. • g. Following centrifugation, carefully remove the falcons from the centrifuge. • h. The following layers will be observed: • i. Aspirate the plasma layer off carefully without disturbing the different layers. • j. Remove the cell pellet using a pipette into two fresh 50 ml falcons. • k. Fill the falcons with the cells up to 50 ml with DPBS. • l. Centrifuge the falcons at 250×g for 10 minutes using a swing-out rotor (Brake-off). • m. Aspirate the complete DPBS off the cells without disturbing the cell pellet at the bottom of the falcon. • n. Re-suspend the cell pellet in 10 ml of 1×RBC lysis buffer. • o. Incubate the falcons at room temperature in the dark for 10 minutes. • p. After RBC lysis, centrifuge the tubes at 250×g for 10 minutes using a swing-out rotor (brake-off). • (*Note: If the cell pellet is still red or light red, repeat steps n. to p.!) • q. Re-suspend the cell pellet in DPBS up to 50 ml in the falcon. • r. Centrifuge the falcons at 250×g for 10 minutes using a swing-out rotor (Brake-off). • s. Aspirate the DPBS off the cells without disturbing the cell pellet at the bottom of the falcon. • t. Repeat the wash step as described in steps q. to s. 2× times more (total number of washes is 3×). • u. Aspirate the DPBS completely off the cell pellet after the last wash without disturbing the cell pellet. • v. Re-suspend the cell pellet in 20 ml of PBMC cell medium. • w.
• a. Remove the plates with cells from the incubator. • b. Take all the plates including the compound plate, intermediate plate and Staurosporine plate to the ECHO. • c. Click on “Open” in the ECHO software and select the protocol “QLI5_25ul_30 uM-Grenier”. • d. Follow the on-screen prompts and instructions once you click “Start” to insert the compound plate, intermediate plate and destination plates. • e. Change the final number of destination plates on the program. • f. Follow the on-screen prompts and instructions once you click “Start” to load the Staurosporine and destination plates. • g. Once all the compounds, DMSO and Staurosporine have been transferred, place the destination plates in a wet tissue box. • h. Place the destination plates back into the incubator and incubate at 37° C., 5% CO2 for 105 minutes. • i. Re-seal all the compound+Stauro diamond and intermediate plates and store in the dark. Chymotrypsin like ProteasomeGlo Assay • 1. Thaw the components of the ProteasomeGlo assay at room temperature including the ProteasomeGlo Buffer, the lyophilized Luciferin Detection Reagent and the Suc-LLVY-Glo Substrate. • 2. […]

[3] = test system: HT-29 cells; experiment: CellTiter-Glo luminescent cell viability assay with HT-29 cells (72h incubation); assay type: cell-based, human; settings: Homo sapiens, HT-29, HT29 cells, read-out: CTG HT29
In short: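 400 cells per well in DMEM/10% FCS were dosed after 24 h and kept 72 h at 37 °C, 5% CO2. ATP-based luminescence (CellTiter-Glo) normalized to DMSO and 10 μM staurosporine controls; IC50 by dose-response fit.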

[4] = target: T2, β5 subunit of the human constitutive proteasome (CPS) (Homo sapiens, UniProt P28074); experiment: β5 inhibition assay, human constitutive proteasome (Suc-LLVY-AMC); assay type: biochemical; settings: IC50 class, Suc-LLVY-AMC substrate
T2 construct: purchased Boston Biochem E-360
Description: The enzymatic activity of the β5 subunit of the human constitutive proteasome (CPS) is analyzed. In another assay, which differs from the assay of the human constitutive proteasome only in using the human immunoproteasome (IPS) the enzymatic activity of the β5 subunit of the human immunoproteasome (IPS) is analyzed. […] Inhibition is indicated as IC50 [nM] (“-”=not measured).

[5] = test system: A549 (human lung carcinoma cell line); experiment: Glo assay of A549 cells (Table 3; ProteasomeGlo plating scheme); assay type: cell-based; settings: Homo sapiens; A549 cells; read-out: PGLo A549
In short: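 IC50 values (nM) come from a cell-based chymotrypsin-like Proteasome-Glo luminescence assay. Compound exposure ran 105 min at 37° C.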

[6] = test system: B-cells isolated from PBMC's; experiment: Chymotrypsin-like ProteasomeGlo assay in B-cells isolated from PBMCs; assay type: cell-based, human; settings: Homo sapiens; B-cells isolated from PBMC's; read-out: Pglo B-Cell
Source text: PBMC's will be isolated from human blood followed by B-cell isolation from the PBMC's using the Miltenyi Isolation Kit. • 2. This experiment will use the Chymotrypsin-like ProteasomeGlo read-out to generate IC50's following compound treatment. • 3. Dilute all compounds 1:100 for the assay. • 4. […] Repeat the DMSO transfer with lane 12. • 5. Lane 12 should not be seeded with any cells. Only medium! • 6. For all steps, make sure the samples and reagents remain cool! • 7. While dealing with the buffy coats, be careful to not let any exposed skin to be in direct contact with the blood. […] PBMC isolation followed by B-cell isolation using the Miltenyi Kit • Day 2: B-cell plating, ECHO transfer and ProteasomeGlo assay For the initial steps and to make processing the buffy coats easier, separately process the buffy coats. • a. Cut the tube attached to the buffy coats carefully using a clean, sterile and fresh scalpel. • b. Transfer the blood into 2 individual 50 ml falcons. • c. Add an equal volume of DPBS to the blood in the falcons. • d. Add 20 ml of lymphocyte separating medium to two 50 ml falcons. • e. Carefully pour 15-20 ml of the blood+DPBS mix from step c. onto the lymphocyte separating medium from step d. • f. Centrifuge the falcons with the lymphocyte separating medium+blood mix at 800×g for 15 minutes using a swing-out rotor. • g. Following centrifugation, carefully remove the falcons from the centrifuge. • h. The following layers will be observed: • i. Aspirate the plasma layer off carefully without disturbing the different layers. • j. Remove the cell pellet using a pipette into two fresh 50 ml falcons. • k. Fill the falcons with the cells up to 50 ml with DPBS. • l. Centrifuge the falcons at 250×g for 10 minutes using a swing-out rotor (Brake-off). • m. Aspirate the complete DPBS off the cells without disturbing the cell pellet at the bottom of the falcon. • n. Re-suspend the cell pellet in 10 ml of 1×RBC lysis buffer. • o. Incubate the falcons at room temperature in the dark for 10 minutes. • p. After RBC lysis, centrifuge the tubes at 250×g for 10 minutes using a swing-out rotor (brake-off). • (*Note: If the cell pellet is still red or light red, repeat steps n. to p.!) • q. Re-suspend the cell pellet in DPBS up to 50 ml in the falcon. • r. Centrifuge the falcons at 250×g for 10 minutes using a swing-out rotor (Brake-off). • s. Aspirate the DPBS off the cells without disturbing the cell pellet at the bottom of the falcon. • t. Repeat the wash step as described in steps q. to s. 2× times more (total number of washes is 3×). • u. Aspirate the DPBS completely off the cell pellet after the last wash without disturbing the cell pellet. • v. Re-suspend the cell pellet in 20 ml of PBMC cell medium. • w. […] Re-suspend the pellet in volume of the B-cell isolation buffer calculated as follows: • k. Mix well using a 1 ml pipette and incubate the mix on ice for 20 mins. • l. In the meantime, equilibrate one LS Column as follows: • 1. Insert one LS Column into one slot of the separator as depicted in the pictures above. • 2. Place a 50 ml falcon at the bottom of the LS column to collect the wash flow-through. • 3. Add 3 ml of the B-cell isolation buffer into the column. • 4. Allow the buffer to flow-through making sure that the entire volume passes the column and that the column reservoir is empty before the addition of the cells. • 5. Remove the falcon with the flow-through and discard. • m. Place a fresh 50 ml falcon under the LS Column to collect the untouched B-cells isolated from the PBMCs. • n. Apply the entire volume of the cell+antibody+microbeads mix to the LS Column. • o. Collect the flow-through from each application of the mix into the same 50 ml falcon under the LS Column. • p. Once the complete volume of the cell+antibody+microbead mix has been passed through, proceed to washing of the column. • q. Add 3 ml of the B-cell isolation buffer to the LS Column and allow the buffer to flow-through. […]

IC50 [1] [nM] | IC50 [2] [nM] | IC50 [3] [nM] | IC50 [4] [nM] | IC50 [5] [nM] | Compound | IC50 [6] [nM]
 | < 100 | 100 to 500 |  | 100 to 500 | Cc1ccc2cc1CNC(=O)[C@H](CCc1ccccc1)NC(=O)[C@@H](NC(=O)OCc1ccccc1)CCCC(=O)N1CCC(CO2)C1 (stereo partly drawn) [Compound 351, benzyl ((8S, 11S)-4^4-methyl-7,10,15-trioxo-8-phenethyl-3-oxa-6,9-diaza-1(3,1)-pyrrolidina-4(1,3)-benzenacyclopentadecaphane-11-yl)carbamate] | 
 | > 5000 | 100 to 500 |  |  | CC(=O)N[C@H]1CC(=O)N2CCC2(C)COc2ccc(C)c(c2)CNC(=O)[C@H](CCc2ccccc2)NC1=O (stereo partly drawn) [Compound 260, N-((8S,11S)-1^2,4^4-dimethyl-7,10,13-trioxo-8-phenethyl-3-oxa-6,9-diaza-1(2,1)-azetidina-4(1,3)-benzenacyclotridecaphane-11-yl)acetamide] | 

Second part, the compound before the results:

Compound | IC50 [1] [nM] | IC50 [2] [nM] | IC50 [3] [nM] | IC50 [4] [nM] | IC50 [5] [nM] | IC50 [6] [nM]
CC(=O)N[C@H]1CC(=O)NCCCCOc2ccc(C)c(c2)CNC(=O)[C@H](CCc2ccccc2)NC1=O [Compound 168, N-((10S,13S)-1^4-methyl-8,11,14-trioxo-13-phenethyl-2-oxa-7,12,15-triaza-1(1,3)-benzenacyclohexadecaphane-10-yl)acetamide] | 1000 to 5000 | 1000 to 5000 | 100 to 500 | > 5000 |  | 
CC(=O)N[C@H]1CC(=O)N2CCCC(C2)Oc2ccc(C)c(c2)CNC(=O)[C@H](CCc2ccccc2)NC1=O (stereo partly drawn) [Compound 255, N-((7S,10S)-3^4-methyl-6,9,12-trioxo-7-phenethyl-2-oxa-5,8-diaza-1(3,1)-piperidina-3(1,3)-benzenacyclododecaphane-10-yl)acetamide] |  | > 5000 | 100 to 500 |  | > 5000 | 
Cc1cc(C)c2cc1CNC(=O)[C@H](CCc1ccccc1)NC(=O)CCC(=O)N1CCCC(CCO2)C1 (stereo partly drawn) [Compound 59, (9R)-5^4,5^6-dimethyl-9-phenethyl-4-oxa-7,10-diaza-1(3,1)-piperidina-5(1,3)-benzenacyclotetradecaphane-8,11,14-trione] |  |  | 1000 to 5000 |  |  | 100 to 500
